Measured values taken from patent US20120172313A1, “TREATMENT OF PROLIFERATIVE DISEASES” (priority 2010, published 2012).
Bridges are numbered along the chain shown (N, C = ends). Where no end group is shown, it is not given here.

Legend:
human red blood cells = assay: Red blood cell (RBC) lysis; settings: for haemolytic activity: concentrations up to 100 μM
Method: Following ficoll-paque separation, RBCs were collected and washed with 1×PBS and pelleted at 1000×g for 10 min. RBCs were diluted 1 in 10 for treatment with increasing concentrations (0-100 μM) of defensins and incubated over-night under a humidified atmosphere of 5% CO2/95% air. […] The degree of red blood cell lysis was measured as absorbance at 412 nm.

[1] = system: human coronary artery smooth muscle cells (CASMC) and umbilical vein endothelial cells (HUVEC); settings: read-out: IC50, viability of normal primary cells (MTT), 48 h
Method: Tumour cells were seeded in a 96-well microtitre plate (50 μL/well) at an optimum density determined in the cell optimisation assay as above. Background control wells (n=8) containing the same volume of complete culture medium were included in the assay. The microtitre plate was incubated overnight at 37° C., prior to the addition of proteins at various concentrations and the plate was incubated for a further 48 h. The cell viability 3-(4,5-dimethyl-2-thiazolyl)-2,5-diphenyl-2H-tetrazolium bromide (MTT, Sigma-Aldrich) assay was carried out as follows: the MTT solution (1 mg/mL) was added to each well (100 μL) and the plate incubated for 2-3 h at 37° C. under a humidified atmosphere containing 5% CO2/95% air. Subsequently, for adherent cell lines, the media was removed and replaced with dimethyl sulfoxide (100 μL, DMSO, Sigma-Aldrich), and placed on a shaker for 5 min to dissolve the tetrazolium salts. In the case of suspension cells, prior to the addition of DMSO the cells are spun at 1500 rpm for 5 min. Absorbance of each well was measured at 570 nm and the IC50 values (the protein concentration to inhibit 50% of cell growth) were determined using the Origin Software Program. […]

[2] = system: Fusarium oxysporum f. sp. vasinfectum; settings: read-out: IC50, growth of Fusarium oxysporum f. sp. vasinfectum
Method: Permeabilization of fungal membranes has also been reported for some plant defensins (Lay and Anderson, 2005). […] These five fungal species are all members of the ascomycete phylum and are distributed among three classes in the subphylum pezizomycotiria. These fungi are agronomically important fungal pathogens.
SP Sepharose elution fractions containing rNaD1 were loaded onto an analytical C8 RP-HPLC column and eluted using a 40 min linear gradient (0-100% buffer B). Proteins were detected by absorbance at 215 nm. […] Graph represents data from three separate experiments performed in quadruplicate. Error bars represent standard error of the mean.

[3] = Lipid-coated membrane strip binding assay (Echelon lipid strips); settings: 0.12 μM, overnight, 4° C.
Method: Membrane Lipid Strips™, PIP Strips™ and Sphingo Strips™ (Echelon Biosciences, Salt Lake City, Utah) were incubated with PBS/3% BSA for 1-2 h at RT to block non-specific binding. The membrane strips were then incubated with defensins (0.12 μM) diluted in PBS/1% BSA overnight at 4° C., prior to thorough washing for 60 min at RT with PBS/0.1% Tween-20. […] After each antibody incubation, the membrane strips were washed extensively for 60 min at RT with PBS/0.1% Tween-20. Chemiluminescence was detected using the enhanced chemiluminescence (ECL) western blotting reagent (GE Healthcare BioSciences, NSW Australia) and exposed to Hyperfilm (GE Healthcare BioSciences, NSW, Australia) and developed using an Xomat (All-Pro-Imaging).
Densitometry analysis was performed on images obtained from lipid strips using ImageJ (National Institute of Health, Bethesda, Md.). Briefly, circles of equivalent size were traced around areas of interest. A background circle of equal size was also placed in the area on the membrane where there is no lipid and set as the background. The areas of interest were quantified as the average pixel intensity subtracted from the background.
These strips are spotted with 100 pmole of each lipid in a biologically active form.
Further investigation of the interaction of Solanaceae class I and class II defensins with cellular lipids was carried out by solid-state lipid binding assays using Echelon™ PIP Strips. […] Defensin binding was quantitated by densitometry on the developed lipid strips.

[4] = system: U937 human myelomonocytic cells; assay: ATP bioluminescence (ATP release) assay, U937; type: cell-based; settings: read over 30 min
Method: ATP bioluminescence assay (Roche Diagnostics, NSW Australia) was used to quantitate the release of ATP by permeabilised tumour cells. The Luciferase reagent was dissolved as per manufacturer's instructions and incubated for 5 min at 4° C. Briefly, cells were re-suspended at a concentration of 1×10^6 cells/mL in 1×PBS/0.1% BSA and added (40 μL/well) to the Luciferase reagent (50 μL/well) to a blank microtitre plate (Nunc™) containing 10 μL of protein samples. Simultaneously, using a multichannel pipette, the mixture was added (90 μL/well) and samples were immediately read on a microtitre plate reader at 562 nm for 30 min with readings taken at 30 s intervals. The data were analysed by SoftMaxPro 4.0 software (Molecular Devices Company).
(§1) To determine whether NaD1 kills tumour cells in a similar manner to fungus, the ability of NaD1 to permeabilise tumour cells was assessed using two different approaches. The first used a bioluminescence assay to measure the release of intracellular ATP.
(§2) The first used a bioluminescence assay to measure the release of intracellular ATP. 4×10^4 U937 (human myelomonocytic tumour cell line) were treated with increasing concentrations of PhD1A or rTPP3 (0-20-μM) and ATP release measured at intervals of 30 seconds for a total of 30 min by determining absorbance at 562 nm. The second approach used flow cytometry to determine the uptake of the fluorescent dye propidium iodide (PI) (2 μg/mL) by U937 (4×10^5/mL) following the treatment of cells with increasing concentrations of PhD1A (0 to 50 μM) or rTPP3 (0 to 40 μM) for 30 min.
(§3) The first used a bioluminescence assay to measure the release of intracellular ATP. 4×10^4U937 were treated with 10 μM of each defensin and ATP release measured at intervals of 30 seconds for a total of 30 min by determining absorbance at 562 nm. The second approach used flow cytometry to determine the uptake of the fluorescent dye propidium iodide (PI) (2 μg/mL) by U937 (4×10^5/mL) following the treatment of cells with […] of each defensin for 30 min.

[5] = system: human U937 myelomonocytic cells; assay: PI uptake flow cytometry cell permeabilisation assay, U937; type: cell-based; settings: for PI+ U937 cells (mean ± SEM): 10 μM, absence of serum, Example 9, cell only control 27.03±0.52
Method: (§4) Unless otherwise stated, cells were re-suspended at a cell concentration of 4×10^5 cells/mL in complete culture RPMI-1640 medium supplemented with 10% FBS, 100 U/mL penicillin and 100 μg/mL streptomycin, and added to either a V-bottom 96-well plate or microfuge tubes. Cells were kept at 37° C., unless otherwise stated, during protein addition (5 μL) at various concentrations or the set concentration of 10 μM. Typically, cells were mixed with the protein of interest and incubated at 37° C. for 30 min. In certain experiments, cells were also incubated at either 4° C. or 37° C. for 2-60 min prior to flow cytometry analysis. Cells were added to an equal volume of complete culture medium containing 2 μg/mL propidium iodide (PI, Annexin V-FITC Apoptosis Detection Kit, Invitrogen) and analysed immediately by flow cytometry using a FACSCanto cell sorter (Becton Dickson, Fanklin Lakes, N.J.) and Cell Quest Pro Software (Becton Dickson). Typically, 5000-10000 events per sample were collected and the resultant data were analysed using FlowJo software (Tree Star, Ashland, Oreg.). Cells were gated appropriately based on forward scatter (FSC) and side scatter (SSC), with the viable cells determined by their ability to exclude PI. For analysis purposes, all data was standardised relative to control (normal cell % ranged from approx. 0-7%).
as §1, §2
(§5) The percentage of PI^+ cells was then determined by flow cytometry.
as §3

U937 cells = assay: PI uptake permeabilisation assay in the presence of serum; type: cell-based, human; settings: for PI+ U937 cells: 10 μM defensin; for activity on tumour cells in the presence of serum: up to 40% serum
Method: as §4, §5
To assess the ability of PhD1A or rTPP3 to permeabilise tumour cells in the presence of serum, the PI-uptake flow cytometry assay was utilised as described in Example 2 with the following modifications: 4×10^5/mL U937 cells were incubated with […] PhD1A or rTPP3 in the presence of increasing concentrations of foetal calf serum (FCS) (0 to 40%) for 60 min followed by addition of 2 μg/mL PI. The percentage of PI^+ cells was then determined by flow cytometry.

[6] = Acute oral toxicity (OECD Test Guideline 423); type: in vivo, C57BL/6 mice
Excerpt: This study was based on OECD Test Guideline 423 (OECD [Organisation for Economic Co-operation and Development]. 2001. Guideline 423: Acute Oral Toxicity—Acute Toxic Class Method. Paris: OECD).
Healthy female C57BL/6 mice derived from the same litter were obtained from either the Central Animal House at La Trobe University (Bundoora Campus) or from Monash Animal Services. The animals were identified by ear punch and kept three per cage during the study. The animals will be housed and maintained in groups of three in cages as per standard animal house conditions at La Trobe University.
On the day of dosing, the test mice were weighed and fasted for 4 h prior to dose administration. Just prior to dosing, the mice were reweighed. […] The protein solution was administered by oral gavage using a round-tipped canula needle. Feed was replaced 1 h after dosing. The mice received standard rodent diet and water ad libitum.
The mice were observed hourly for 4 h after dosing on day 1 and at least twice daily thereafter until scheduled killing on day 14. Signs of gross toxicity, adverse pharmacologic effects and behavioural changes were assessed and recorded daily as was the food and water consumption. The mice were reweighed at days 7 or 8 and 14. On the last day of the study (day 14), the mice were killed by inhalation of carbon dioxide and necropsied. All the mice received a gross pathological examination. The weights of the following organs were recorded: brain, heart, liver, lungs, kidneys, gastrointestinal tract, spleen and thymus. Subsequently, the samples were fixed in 4% (v/v) paraformaldehyde until paraffin embedding, sectioning and histopathological examination by the Australian Phenomics Network, University of Melbourne node. The gastrointestinal tract was divided into the following sections: stomach, duodenum, jejunum, ileum, cecum and colon.

Sclerotinia sclerotiorum = settings: 100 μg/mL; cited from earlier work
Phoma betae = settings: 1 μg/mL; cited from earlier work
[7] = Example 11, 30 min at 37° C., concentration printed 'at 100' (10 μM in the same block)
[8] = oral gavage, 20, 50 or 300 mg NaD1/kg body weight, 14 days

ARECKTESNTFPGICITKPPCRKACISEKFTDGHCSKILRRCLCTKPC (disulfide 4-48, 15-35, 21-42, 25-44) [rNaD1]
haemolytic activity (human red blood cells): no ability to lyse RBCs | haemolytic activity (human red blood cells; listed as recombinant NaD1): no haemolytic activity | IC50 [1]: 7.5 to 12 µM | IC50 [2]: ~1.6 µM

NsD1: Nicotiana suaveolens class II defensin; mature domain SEQ ID NO: 22 (KDCKRESNTFPGICITKPPCRKACIREKFTDGHCSKILRRCLCTKPC; listed as Nicotiana suaveolens)
phospholipid binding preference (PIP strips) [3]: general preference of binding to phosphoinositides | release of ATP from U937 cells [4]: release of ATP in a time-dependent and concentration-dependent manner | PI+ U937 cells [5, 7]: ~60%

NsD2: Nicotiana suaveolens class II defensin; mature domain SEQ ID NO: 26 (KDCKRESNTFPGICITKLPCRRACISEKFADGHCSKILRRCLCTKPC; listed as Nicotiana suaveolens)
phospholipid binding preference (PIP strips) [3]: general preference of binding to phosphoinositides | release of ATP from U937 cells [4]: release of ATP in a time-dependent and concentration-dependent manner | PI+ U937 cells [5, 7]: ~60%

PhD1A: Petunia hybrida Class II defensin; mature domain SEQ ID NO: 18 (ATCKAECPTWDGICINKGPCVKCCKAQPEKFTDGHCSKVLRRCLCTKPC; listed as Petunia hybrida)
binding to phosphatidic acid (PA) [3]: bound strongly | phospholipid binding preference (PIP strips) [3]: general preference of binding to phosphoinositides | release of ATP from U937 cells [4]: release of ATP in a time-dependent and concentration-dependent manner | PI+ U937 cells (U937 cells; 0% FCS): 90% | PI+ U937 cells (U937 cells; 40% FCS): 40% | activity on tumour cells in the presence of serum (U937 cells): retained the ability to permeabilise U937 cells | PI+ U937 cells ([5]; 6.25 μM, 30 min, 37° C.): ~35% | PI+ U937 cells (mean ± SEM) [5]: 57.07±2.76% | PI+ U937 cells ([5]; 50 μM, 30 min, 37° C.): ~90%

RECKTESNTFPGICITKPPCRKACISEKFTDGHCSKILRRCLCTKPC (disulfide 3-47, 14-34, 20-41, 24-43) [NaD1]
RBC lysis (relative to water = 100% lysis) (human red blood cells; 100 μM, 16 h, 37° C.): ~50% | adverse effects on mice ([6]; administered orally at up to 300 mg NaD1/kg body weight): no adverse effects | histopathology of organs ([6]; highest dose of 300 mg NaD1/kg body weight): possible slight irritation to the stomach epithelium | body weight [6, 8]: no treatment related effects on body weight | clinical signs [6, 8]: no signs of gross toxicity, adverse pharmacologic effects or behavioural changes | survival [6, 8]: survived to termination of the study | histopathology of organs ([6]; oral gavage, doses below 300 mg NaD1/kg body weight): No pathologies, attributable to protein administration | IC50 [1]: 7.5 to 12 µM | IC50 [2]: ~1 µM

Rs-AFP2: antifungal plant defensin from radish seeds (QKLCQRPSGTWSGVCGNNNACKNQCIRLEKARHGSCNYVFPAHKCICYFPC; UniProt P30230 30-80, looked up)
activity against Sclerotinia sclerotiorum (Sclerotinia sclerotiorum): ineffective | growth of Phoma betae (Phoma betae): inhibits the growth

rTPP3: Solanum lycopersicum (tomato) Class II defensin TPP3, recombinant (SEQ ID NO: 12) (AQQICKAPSQTFPGLCFMDSSCRKYCIKEKFTGGHCSKLQRKCLCTKPC; listed as Solanum lycopersicum)
phospholipid binding preference (PIP strips) [3]: general preference of binding to phosphoinositides | release of ATP from U937 cells [4]: release of ATP in a time-dependent and concentration-dependent manner | retention of permeabilisation activity (U937 cells; 5-40% FCS): up to 70% | activity on tumour cells in the presence of serum (U937 cells): retained the ability to permeabilise U937 cells | PI+ U937 cells ([5]; 5 μM, 30 min, 37° C.): ~35% | PI+ U937 cells (mean ± SEM) [5]: 49.97±2.93% | PI+ U937 cells ([5]; 40 μM, 30 min, 37° C.): ~90%
